According to patent US6815421B1, “Polypeptides for use in ameliorating effects of aging in mammals” (Osteopharm Inc., priority 2001, dated 2004):

Experiment: Body weight and DEXA body composition in aging intact and ovariectomized rats treated with polypeptide
Assay type: in vivo, female Sprague-Dawley rats
Details: for increase in bone mineral content / increase in body fat content: DEXA
Experimental: Experiments were conducted using female Sprague-Dawley rats that were about 5 months old at the beginning of the experiments. The rats were obtained from Vivarium of the University of Toronto, Mississauga, Ontario, Canada.
The rats were housed in pairs in either a standard shoebox cage 15 cm in height (low cage) or a cage with 22 cm height (tall cage). Humidity was maintained at 50%; temperature 22° C.; dark/light cycle of 12 hours. The rats were fed Standard Purina Rat Chow (unlimited daily supply) and tap water ad libitum.
Ovariectomies were performed under general isofluorane anaesthesia. A 1.5 cm dorsal midline incision was made. The skin and subcutaneous tissue were separated by blunt dissection. A small incision was made on either side in the posterior abdominal muscle wall (approximately 0.5 cm) to expose the ovaries. The ovaries were removed together with the proximal ends of the Fallopian tubes after the ligation of the ovarian arteries. The wounds in the abdominal muscle wall were not stitched. The dorsal skin wound was closed by three surgical wound clips. Tamgesic (0.2 ml) was given subcutaneously for the relief of pain immediately after the operation.
Body weight measurements were made by direct weighing with an electronic balance (to 0.01 g) and by DEXA measurement, Instrument: Hologic 4500A with program for regional measurement for small animals. The animals were scanned supine under general isofluorane anaesthesia. The whole body was scanned including the whole tail. The weights for the mineral content, the fat content and the lean body mass were summed to obtain total body weight.
Non-treated (control) animals were injected subcutaneously daily with 400 μL of 20 mM sodium acetate (pH 4.5) 5 days per week. Treated animals were injected subcutaneously with 300 nmoles per kg of body weight of the test polypeptide (SEQ ID NO:1) in 400 μL of 20 mM sodium acetate (pH 4.5) daily five days per week. The treatment period was nine months. The material, chemically synthesized, was obtained from the Protein DNA Core facility of Queen's University, Kingston, Ontario, Canada. Purification, by HPLC, indicated the test compound to be at least 95% pure.
DEXA measurements were evaluated as an indication of body composition. Through the attenuation of X-ray energy DEXA measurements provide an indication of the mass of various body tissues. In the Hologic DEXA instrument, the program measures the mass of bone tissue, fat and lean body mass (largely muscle mass). The sum of these measured masses represents total body mass. If this proposition is correct, then the total body mass measured by DEXA and measured directly by balance will be the same. Over the course of these experiments, 677 paired measurements of the body weight were made using the two methods. The results obtained (FIG. 1) indicate that there is a close relationship between the DEXA measurements and the measurements. It was thus concluded that body composition could be assessed using DEXA measurements.
Eight groups of rats were treated as follows:
Ovariectomies were performed at the age of 5 months. The ovariectomized animals were allowed to lose bone for two months following ovariectomy before the treatment began. A baseline measurement was made immediately prior to operation. Another pretreatment baseline measurement was made at the beginning of treatment, i.e. two months after ovariectomization. Measurements were made approximately monthly thereafter. At the end of the experiments, all animals were sacrificed by carbon dioxide narcosis.
Procedures were carried out according to the following schedule: […]

Xaa1-Thr-GIn-Glu-His-Thr-Ala-Glu-Cys-Xaa10, where Xaa1 is N-acetyl arginine and Xaa10 is lysinamide (Ac-RTQEHTAECK-NH2) [SEQ ID NO:1, 10-mer, protected at both ends]
change in lean body mass (all groups of rats (intact and ovariectomized, treated and untreated), 10-month experimental period, FIGS. 6A to 7B): relatively small change | increase in bone mineral content (intact rats, FIG. 8): attenuation of the increase | increase in body fat content (intact rats, vs untreated (control) rats, reduction greatest in tall cages, FIG. 4): reduced | age-related gain in total body weight (intact rats, tall and low cages, 300 nmoles per kg s.c. daily five days per week, vs untreated, FIG. 2): lower age-related gain | change in BMC/BW ratio with time (intact rats, tall and low cages, vs untreated, FIGS. 10 and 11): changed much less | change in LBM/BW ratio with time (intact rats, tall and low cages, vs untreated, FIGS. 14 and 15): changed much less | attenuating effect on change in LBM/BW ratio over time (ovariectomized rats compared with intact rats, FIGS. 14 to 17): greater for intact rats than it was for ovariectomized rats | increase in body fat content (ovariectomized rats housed in low cages, FIG. 5): less so | increase in body fat content (ovariectomized rats housed in taller cages, FIG. 5): significantly smaller increase | increase in bone mineral content (ovariectomized rats, FIG. 9): attenuation of the increase | overall weight gain (ovariectomized rats, tall and low cages, 300 nmoles per kg s.c. daily five days per week, vs untreated, FIG. 3): relative decrease in overall weight gain | attenuating effect on decrease in BMC/BW ratio with time (ovariectomized rats, tall and low cages, compared with intact rats, FIGS. 12 and 13): less pronounced
